Active and inactive are the calls of the source. No cut-off for these calls is given here.
How the values were obtained:
Duck hepatitis B virus [1] = experiment: Antiviral activity against Duck hepatitis B virus (DHBV) infected duck assessed as liver weight at 10 mg/kg, po for 30 days (reference value: 1.25 g); format: functional
Duck hepatitis B virus [2] = experiment: Antiviral activity against Duck hepatitis B virus (DHBV) infected duck assessed as reduction in viral DNA level at 10 mg/kg, po for 30 days measured on day 30 by RT-PCR analysis; format: functional, organism-based; design: dose 10 mg/kg
HepG2 [3] = experiment: Cytotoxicity against Homo sapiens (human) HepG2 cells at <1000 uM after 72 hr by MTT assay; format: cell-based; settings: hepg2, 72 h
Duck hepatitis B virus [4] = experiment: Antiviral activity against Duck hepatitis B virus (DHBV) infected duck assessed as reduced inflammation in liver at 10 mg/kg, po for 30 days; format: functional, organism-based; design: dose 10 mg/kg
Duck hepatitis B virus [5] = experiment: Antiviral activity against Duck hepatitis B virus (DHBV) infected duck assessed as reduction in viral DNA level at 10 mg/kg, po for 30 days measured on day 15 post termination of treatment by RT-PCR analysis; format: functional, organism-based; design: dose 10 mg/kg
Duck hepatitis B virus [6] = experiment: Antiviral activity against Duck hepatitis B virus (DHBV) infected duck assessed as viral DNA level at 10 mg/kg, po for 30 days measured on day 15 post initial treatment by RT-PCR analysis; format: functional, organism-based; design: dose 10 mg/kg
HepG2 [7] = experiment: Cytotoxicity against Homo sapiens (human) HepG2 assessed as mitochondrial DNA level at 0.1 to 10 umol for 8 days by dot blot assay; format: cell-based; settings: hepg2, 192 h
Duck hepatitis B virus [8] = experiment: Antiviral activity against Duck hepatitis B virus (DHBV) infected duck assessed as liver weight at 50 mg/kg, po for 30 days (reference value: 1.25 g); format: functional
Duck hepatitis B virus [9] = experiment: Antiviral activity against Duck hepatitis B virus (DHBV) infected duck assessed as liver weight at 2 mg/kg, po for 30 days (reference value: 1.25 g); format: functional
Duck hepatitis B virus [10] = experiment: Antiviral activity against Duck hepatitis B virus (DHBV) infected duck assessed as reduction in viral DNA level at 2 to 50 mg/kg, po for 30 days measured on day 15 post termination of treatment by RT-PCR analysis; format: functional, organism-based
Duck hepatitis B virus [11] = experiment: Antiviral activity against Duck hepatitis B virus (DHBV) infected duck assessed as reduction in viral DNA level at 2 to 50 mg/kg, po for 30 days measured on day 30 by RT-PCR analysis; format: functional, organism-based
Duck hepatitis B virus [12] = experiment: Antiviral activity against Duck hepatitis B virus (DHBV) infected duck assessed as viral DNA level at 2 to 50 mg/kg, po for 30 days measured on day 15 post initial treatment by RT-PCR analysis; format: functional, organism-based
Duck hepatitis B virus [13] = experiment: Antiviral activity against Duck hepatitis B virus (DHBV) infected duck assessed as reduction in viral DNA level at 2 to 50 mg/kg, po for 30 days measured on day 15 post initial treatment by RT-PCR analysis; format: functional, organism-based
Duck hepatitis B virus [14] = experiment: Antiviral activity against Duck hepatitis B virus (DHBV) infected duck assessed as reduced inflammation in liver at 2 to 50 mg/kg, po for 30 days; format: functional, organism-based
HepG2 [15] = experiment: Cytotoxicity against Homo sapiens (human) HepG2 assessed as mitochondrial DNA level for 8 days by dot blot assay; format: cell-based; settings: hepg2, 192 h
Duck hepatitis B virus [16] = experiment: Antiviral activity against Duck hepatitis B virus (DHBV) infected po dosed duck assessed as reduction in viral DNA level administered for 30 days measured on day 15 post initial treatment by RT-PCR analysis; format: functional, organism-based
Duck hepatitis B virus [17] = experiment: Antiviral activity against Duck hepatitis B virus (DHBV) infected po dosed duck assessed as reduction in viral DNA level administered for 30 days measured on day 30 by RT-PCR analysis; format: functional, organism-based
Duck hepatitis B virus [18] = experiment: Antiviral activity against Duck hepatitis B virus (DHBV) infected po dosed duck assessed as reduction in viral DNA level administered for 30 days measured on day 15 post termination of treatment by RT-PCR analysis; format: functional, organism-based

Structure (SMILES)	Activity (Duck hepatitis B virus [1])	inhibition (Duck hepatitis B virus [2])	Activity (HepG2 [3])	inhibition (Duck hepatitis B virus [4])	inhibition (Duck hepatitis B virus [5])	Activity (Duck hepatitis B virus [6])	Activity (HepG2 [7])	Activity (Duck hepatitis B virus [8])	Activity (Duck hepatitis B virus [9])	inhibition (Duck hepatitis B virus [10])	inhibition (Duck hepatitis B virus [11])	Activity (Duck hepatitis B virus [12])	inhibition (Duck hepatitis B virus [13])	inhibition (Duck hepatitis B virus [14])	Activity (HepG2 [15])	inhibition (Duck hepatitis B virus [16])	inhibition (Duck hepatitis B virus [17])	inhibition (Duck hepatitis B virus [18])
CC(C)(C)C(=O)OCOP(=O)(COCCn1cnc2c(N)ncnc21)OCOC(=O)C(C)(C)C [ADEFOVIR DIPIVOXIL]	0.8 g	Active	Non-toxic	Active	Active	inactive												
CC(Cn1cnc2c(Sc3ccc4c(c3)CCO4)nc(N)nc21)OCP(=O)(OCC(F)(F)F)OCC(F)(F)F (stereo unspecified)	0.75 g		Non-toxic				Non-toxic	0.95 g	0.9 g	Active	Active	inactive	Active	Active				
Nc1ccn([C@H]2CC[C@@H](CO)O2)c(=O)n1 [ZALCITABINE]							Toxic								Dose-dependent effect			
COc1ccc(Sc2nc(N)nc3c2ncn3CCOCP(=O)(OCC(F)(F)F)OCC(F)(F)F)cc1F	0.8 g		Non-toxic				Non-toxic	0.85 g	0.8 g	Active	Active		Active	Active				
CSc1ccc(Sc2nc(N)nc3c2ncn3CCOCP(=O)(OCC(F)(F)F)OCC(F)(F)F)cc1	0.75 g		Non-toxic				Non-toxic	0.55 g	0.8 g					Active		Dose-dependent effect	Dose-dependent effect	Dose-dependent effect

Reference: ChEMBL document CHEMBL3046955, “Antiviral effects of three novel derivatives of adefovir on the replication of hepatitis B virus” (Med Chem Res, 2012)
